Experimental data taken from patent US6160175A, “Naphthyl acetamides as sPLA2 inhibitors” (Eli Lilly and Company, priority 1996, dated 2000).

These compounds were tested against T1, recombinant human secreted phospholipase A2 (Homo sapiens, UniProt P14555) (assay: Chromogenic assay; Human Secreted Phospholipase A2 Inhibition Tests). Conditions: racemic diheptanoyl thio-PC substrate 1 mM, Triton X-100 0.29 mM, pH 7.5, 40° C., 30 minutes, 405 nm; read-out: Inhibition of human secreted PLA2, IC50 ± mean deviation (3-4 tests).
T1 sequence (P14555 21-144): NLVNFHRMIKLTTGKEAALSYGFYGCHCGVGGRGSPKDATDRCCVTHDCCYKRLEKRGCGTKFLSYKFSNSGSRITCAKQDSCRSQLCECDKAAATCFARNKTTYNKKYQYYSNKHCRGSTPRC
Format: biochemical
Text: The following chromogenic assay procedure was used to identify and evaluate inhibitors of recombinant human secreted phospholipase A2. The assay described herein has been adapted for high volume screening using 96 well microtiter plates. A general description of this assay method is found in the article, "Analysis of Human Synovial Fluid Phospholipase A2 on Short Chain Phosphatidylcholine-Mixed Micelles: Development of a Spectrophotometric Assay Suitable for a Microtiterplate Reader", by Laure J. Reynolds, Lori L. Hughes, and Edward A. Dennis, Analytical Biochemistry, 204, pp. 190-197, 1992 (the disclosure of which is incorporated herein by reference):
A measured volume of racemic dipheptanoyl thio PC supplied in chloroform at a concentration of 100 mg/ml is taken to dryness and redissolved in 10 millimolar TRITON X-100™ nonionic detergent aqueous solution. Reaction Buffer is added to the solution, then DTNB to give the Reaction Mixture.
The reaction mixture thus obtained contains 1 mM diheptanoly thio-PC substrate, 0.29 mm Triton X-100™ detergent, and 0.12 mm DTMB in a buffered aqueous solution at pH 7.5.
1. Add 0.2 ml reaction mixture to all wells;
2. Add 10 ul test compound (or solvent blank) to appropriate wells, mix 20 seconds;
3. Add 50 nanograms of sPLA2 (10 microliters) to appropriate wells;
4. Incubate plate at 40° C. for 30 minutes;
5. Read absorbance of wells at 405 nanometers with an automatic plate reader.
All compounds were tested in triplicate. Typically, compounds were tested at a final concentration of 5 ug/ml. […] Lack of color development at 405 nanometers evidenced inhibition. Compounds initially found to be active were reassayed to confirm their activity and, if sufficiently active, IC50 values were determined. […] In all cases, % inhibition measured at 405 nanometers generated by enzyme reactions containing inhibitors relative to the uninhibited control reactions was determined. […] IC50 were determined by plotting log concentration versus inhibition values in the range from 10-90% inhibition.

Row | Compound | IC50
1 | NC(=O)Cc1ccc(Cc2ccccc2)c2ccccc12 [Compound A, 4-Benzyl-1-naphphylacetamide] | 0.87 µM
2 | O=C(O)Cc1ccc(Oc2ccccc2)c2ccccc12 [Compound B, 4-Phenoxynaphth-1-yl acetic acid] | 51 µM
3 | NC(=O)Cc1ccc(Oc2ccccc2)c2ccccc12 [Compound C, 4-Phenoxynaphth-1-yl acetamide] | 4.4 µM
